Values joined by “and” are separate entries in the source; they are usually repeats but may differ in a detail not shown here. Equal values may be shown once. Read-outs that look alike come from different tables or passages of the source.
Tests used:
C57BL/6J mice [1] = assay: mouse head twitch response; type: in vivo; settings: for time of peak HTR effects / Emax(HTR events/30 min) / ED50(mg/kg s.c.) for HTR: mice; for time of peak HTR effects: post drug administration; for Emax(HTR events/30 min) / ED50(mg/kg s.c.) for HTR: s.c.; for Emax(HTR events/30 min): maximum effect; for ED50(mg/kg s.c.) for HTR: 30 min session, ascending phase of HTR curve; for HTR activity (in words): mouse, in vivo
5-HT2B receptor = 5-HT2B receptor (Homo sapiens, UniProt P41595); assay: Gαq-mediated calcium flux assay; type: cell-based; settings: 95% CI in brackets; * = potentially ambiguous
H1 = H1 (Homo sapiens, UniProt P35367); assay: biochemical; type: binding
C57BL/6J mice [2] = assay: locomotor activity; type: in vivo, mouse; settings: s.c., 30 min testing session
5-HT2A receptor = 5-HT2A receptor (Homo sapiens, UniProt P28223); assay: Gαq-mediated calcium flux assay; type: cell-based; settings: read-out: Emax (% 5-HT) 5-HT2A calcium flux, 95% CI in brackets
5-HT1B = 5-HT1B (Homo sapiens, UniProt P28222); assay: GPCR Tango assay measuring β-arrestin recruitment; type: cell-based; settings: up to 50 μM
5-HT2C receptor = molecular target: T1, 5-HT2C receptor (Homo sapiens, UniProt P28335); assay: Gαq-mediated calcium flux assay; type: cell-based
T1 sequence (P28335 33-458): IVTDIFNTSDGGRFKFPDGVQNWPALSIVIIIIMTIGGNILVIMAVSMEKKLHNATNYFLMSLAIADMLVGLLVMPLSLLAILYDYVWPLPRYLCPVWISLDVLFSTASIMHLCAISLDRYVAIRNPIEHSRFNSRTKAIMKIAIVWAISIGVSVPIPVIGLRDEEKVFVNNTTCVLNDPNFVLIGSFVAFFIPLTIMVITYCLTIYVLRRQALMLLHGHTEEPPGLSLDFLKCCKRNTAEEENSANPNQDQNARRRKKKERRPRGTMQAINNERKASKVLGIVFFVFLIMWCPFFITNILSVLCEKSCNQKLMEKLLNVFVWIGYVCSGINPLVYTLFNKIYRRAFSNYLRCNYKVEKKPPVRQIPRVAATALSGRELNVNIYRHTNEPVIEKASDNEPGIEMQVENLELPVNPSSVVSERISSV

C57BL/6J mice [3] = assay: body temperature change from pre to post session in mice; type: in vivo, mouse; settings: highest dose tested
5-HT7A = 5-HT7A (Homo sapiens, UniProt P34969); assay: GPCR Tango assay measuring β-arrestin recruitment; type: cell-based; settings: EC50 5-HT7A Tango, 95% CI in brackets; * = ambiguous
C57BL/6J mice [4] = settings: cited from earlier work
[5] = s.c., identical testing conditions

Chain of 5-HT1B (P28222 whole entry): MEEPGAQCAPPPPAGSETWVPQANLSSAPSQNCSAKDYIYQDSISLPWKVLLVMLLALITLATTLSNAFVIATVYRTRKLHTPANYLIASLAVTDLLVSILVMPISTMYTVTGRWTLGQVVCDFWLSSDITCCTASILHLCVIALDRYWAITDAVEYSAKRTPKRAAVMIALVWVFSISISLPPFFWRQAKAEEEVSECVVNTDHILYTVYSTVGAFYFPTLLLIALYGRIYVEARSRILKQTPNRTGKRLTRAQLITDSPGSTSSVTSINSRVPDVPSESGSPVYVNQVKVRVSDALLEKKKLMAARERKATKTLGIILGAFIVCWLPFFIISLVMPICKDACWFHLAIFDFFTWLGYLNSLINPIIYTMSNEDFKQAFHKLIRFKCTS
Chain of 5-HT2B receptor (P41595 whole entry): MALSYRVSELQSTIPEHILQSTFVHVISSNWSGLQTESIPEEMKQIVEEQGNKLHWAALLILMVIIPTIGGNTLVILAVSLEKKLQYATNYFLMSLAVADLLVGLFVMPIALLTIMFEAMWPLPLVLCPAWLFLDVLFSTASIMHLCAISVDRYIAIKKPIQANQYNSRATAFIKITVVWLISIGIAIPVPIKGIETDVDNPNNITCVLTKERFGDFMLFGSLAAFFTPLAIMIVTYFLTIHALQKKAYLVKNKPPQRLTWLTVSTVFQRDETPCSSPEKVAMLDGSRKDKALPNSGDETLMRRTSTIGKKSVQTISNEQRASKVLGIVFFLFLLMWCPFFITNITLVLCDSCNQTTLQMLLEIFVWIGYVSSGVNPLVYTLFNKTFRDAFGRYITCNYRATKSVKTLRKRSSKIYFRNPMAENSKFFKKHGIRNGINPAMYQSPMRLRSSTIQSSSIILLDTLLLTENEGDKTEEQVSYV
Chain of H1 (P35367 whole entry): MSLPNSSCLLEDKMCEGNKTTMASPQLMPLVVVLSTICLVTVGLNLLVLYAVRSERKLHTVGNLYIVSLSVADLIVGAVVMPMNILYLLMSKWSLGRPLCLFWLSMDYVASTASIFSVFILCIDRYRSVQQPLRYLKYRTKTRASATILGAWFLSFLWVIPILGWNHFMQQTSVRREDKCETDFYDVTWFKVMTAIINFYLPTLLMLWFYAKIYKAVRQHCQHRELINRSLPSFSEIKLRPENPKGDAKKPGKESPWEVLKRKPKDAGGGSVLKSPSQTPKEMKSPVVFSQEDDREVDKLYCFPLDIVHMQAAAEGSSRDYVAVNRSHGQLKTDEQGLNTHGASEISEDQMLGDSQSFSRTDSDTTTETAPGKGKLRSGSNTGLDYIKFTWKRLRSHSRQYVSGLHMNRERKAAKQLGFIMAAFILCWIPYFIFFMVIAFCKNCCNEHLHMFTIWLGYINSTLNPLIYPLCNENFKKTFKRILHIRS
Chain of 5-HT2A receptor (P28223 whole entry): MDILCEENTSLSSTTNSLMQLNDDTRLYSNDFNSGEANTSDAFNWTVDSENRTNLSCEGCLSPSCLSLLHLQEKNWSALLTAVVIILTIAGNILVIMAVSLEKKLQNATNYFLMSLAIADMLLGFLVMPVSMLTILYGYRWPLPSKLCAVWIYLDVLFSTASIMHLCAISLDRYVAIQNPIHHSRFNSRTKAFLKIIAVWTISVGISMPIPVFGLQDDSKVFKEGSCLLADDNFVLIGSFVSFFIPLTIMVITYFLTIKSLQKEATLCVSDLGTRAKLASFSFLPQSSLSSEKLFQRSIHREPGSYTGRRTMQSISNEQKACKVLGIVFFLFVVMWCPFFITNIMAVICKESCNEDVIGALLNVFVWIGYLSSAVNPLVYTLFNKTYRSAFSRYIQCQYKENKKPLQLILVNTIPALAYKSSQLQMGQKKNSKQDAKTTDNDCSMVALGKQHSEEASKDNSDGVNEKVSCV
Chain of 5-HT7A (P34969 1-445 isoform P34969-2): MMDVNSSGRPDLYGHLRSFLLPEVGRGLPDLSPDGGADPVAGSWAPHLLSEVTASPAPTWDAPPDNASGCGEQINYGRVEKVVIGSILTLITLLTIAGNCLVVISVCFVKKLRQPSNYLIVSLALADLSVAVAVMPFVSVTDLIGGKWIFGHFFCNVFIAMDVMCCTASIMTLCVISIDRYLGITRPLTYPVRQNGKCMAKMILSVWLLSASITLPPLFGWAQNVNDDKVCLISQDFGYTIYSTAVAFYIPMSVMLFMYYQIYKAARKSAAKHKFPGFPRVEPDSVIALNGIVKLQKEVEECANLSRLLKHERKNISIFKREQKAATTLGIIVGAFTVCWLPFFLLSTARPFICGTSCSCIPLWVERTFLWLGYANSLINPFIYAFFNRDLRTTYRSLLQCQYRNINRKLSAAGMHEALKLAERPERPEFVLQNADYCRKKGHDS

Compound | time of peak HTR effects (C57BL/6J mice [1]) | Emax(HTR events/30 min) (C57BL/6J mice [1]) | effect on locomotor activity (in words) (C57BL/6J mice [2]) | HTR activity (in words) (C57BL/6J mice [1]) | 5-HT2C functional activity (in words) (5-HT2C receptor) | other results
C=CCNCCc1c[nH]c2cccc(O)c12.C=CCNCCc1c[nH]c2cccc(O)c12.O=C(O)/C=C/C(=O)O [4-HO-NALT, 3-(2-(Allylamino)ethyl)-1H-indol-4-ol Hemifumarate] | 5 to 15 min | 77 HTR events/30 min and 76.6 HTR events/30 min | – | – | – | Emax (% 5-HT) 5-HT2B calcium flux (5-HT2B receptor): 88 % 5-HT; Ki (H1): 467 nM
O=C(O)/C=C/C(=O)O.Oc1cccc2[nH]cc(CCNCc3ccccc3)c12 [4-HO-NBnT, 3-(2-(Benzylamino)ethyl)-1H-indol-4-ol Fumarate] | 5 to 15 min | 26.1 HTR events/30 min | reduced the total locomotor activity | – | – | decrease in HTR potency relative to psilocin (C57BL/6J mice [1]; mg/kg basis): 10 fold; Emax (% 5-HT) 5-HT2B calcium flux (5-HT2B receptor): 11 % 5-HT; Emax (5-HT2A receptor): 70%
CCNCCc1c[nH]c2cccc(O)c12.CCNCCc1c[nH]c2cccc(O)c12.O=C(O)CCC(=O)O [4-HO-NET, 3-(2-(Ethylamino)ethyl)-1H-indol-4-ol Hemisuccinate] | 15 to 25 min | 39.8 HTR events/30 min | reduced the total locomotor activity | – | – | delay of maximum HTR occurrence compared to 4-HO-NALT (C57BL/6J mice [1]; at equivalent doses): 10 min
CCCNCCc1c[nH]c2cccc(O)c12.CCCNCCc1c[nH]c2cccc(O)c12.O=C(O)/C=C/C(=O)O [4-HO-NPT, 3-(2-(Propylamino)ethyl)-1H-indol-4-ol Hemifumarate] | 5 to 15 min | 52 HTR events/30 min and 52.1 HTR events/30 min | reduced the total locomotor activity | – | – | ED50(mg/kg s.c.) for HTR (C57BL/6J mice [1]): 2.9 mg/kg
O=C(O)/C=C/C(=O)O.Oc1cccc2[nH]cc(CCNC3CCCCC3)c12 [4-HO-NcHT, 3-(2-(Cyclohexylamino)ethyl)-1H-indol-4-ol Fumarate] | – | – | – | inactive | inactive | 5-HT1B agonist activity Tango (in words) (5-HT1B): inactive
CC(C)NCCc1c[nH]c2cccc(O)c12.O=C(O)/C=C/C(=O)O [4-HO-NiPT, 3-(2-(Isopropylamino)ethyl)-1H-indol-4-ol Fumarate] | 15 to 25 min | 27 HTR events/30 min and 27.5 HTR events/30 min | – | – | weak partial agonists | ED50(mg/kg s.c.) for HTR (C57BL/6J mice [1]): 3.3 mg/kg; hypothermia Emax (C57BL/6J mice [3]): −1.7 °C
CCCCNCCc1c[nH]c2cccc(O)c12.O=C(O)/C=C/C(=O)O [4-HO-NnBT, 3-(2-(Butylamino)ethyl)-1H-indol-4-ol Fumarate] | – | – | reduced the total locomotor activity | inactive | weak partial agonists | EC50 (5-HT7A): 1000 nM
CC(C)(C)NCCc1c[nH]c2cccc(O)c12.CC(C)(C)NCCc1c[nH]c2cccc(O)c12.O=C(O)/C=C/C(=O)O [4-HO-NtBT, 3-(2-(tert-Butylamino)ethyl)-1H-indol-4-ol Hemifumarate] | – | – | – | inactive | inactive | 5-HT1B agonist activity Tango (in words) (5-HT1B): inactive
CNCCc1c[nH]c2cccc(O)c12 [norpsilocin, 4-hydroxy-N-methyltryptamine] | – | – | – | – | – | ED50(mg/kg s.c.) for HTR (C57BL/6J mice [4]; [5]): >30 mg/kg; HTR activity (in words) (C57BL/6J mice [4]; same assay setup): failed to induce psychedelic-like HTR activity
CN(C)CCc1c[nH]c2cccc(O)c12 [psilocin, 4-hydroxy-N,N-dimethyltryptamine] | – | – | – | – | – | reported HTR ED50 potency (C57BL/6J mice [4]): 0.11 to 0.17 mg/kg; ED50(mg/kg s.c.) for HTR (C57BL/6J mice [4]; [5]): 0.11 mg/kg; Emax(HTR events/30 min) (C57BL/6J mice [4]; [5]): 23 HTR events/30 min

Source: paper PMC10797613 (ACS Chemical Neuroscience, 2024)
